Each block holds one molecule with its values, some of them ahead of it.
Legend:
Xyl43 [1] = molecular target: T1, Xyl43 (Penicillium oxalicum, UniProt S7ZRR2); assay: pNPX hydrolysis, Dixon plot; format: biochemical; conditions: substrate pNPX 0.5 and 1 mg/ml, pH 7.0, 50 °C; end product; described as uncompetitive; Table 1 prints 28.9
T1 construct: gene PDE_06306; full-length, 348 residues, no native signal peptide; alpha-factor secretion signal, C-terminal His6 tag kept; Pichia pastoris X-33 (pPICZalphaA)

Xyl43 [2] = molecular target: T1, Xyl43; assay: pNPX hydrolysis, residual activity; format: biochemical; conditions: pNPX 1 mg/ml, pH 7.0, 50 °C, 30 min; D or L not stated
[3] = substrate: O=[N+]([O-])c1ccc(O[C@@H]2OC[C@@H](O)[C@H](O)[C@H]2O)cc1; assay: p-nitrophenol release, Lineweaver-Burk plot; format: biochemical, Penicillium oxalicum; conditions: pH 7.0, 50 °C, 5 min, no xylose

- Ki (Xyl43 [1]): 28.1 mM
Molecule: OC1OC[C@@H](O)[C@H](O)[C@H]1O (stereo partly drawn) [xylose]

- % of initial activity at 20 mM (Xyl43 [2]): 88.7%
Molecule: OC1OC[C@H](O)[C@H](O)[C@H]1O (stereo partly drawn) [arabinose]

B1: Xyl43 (Penicillium oxalicum 114-2) (protein)
chain: MSSSTSSAPRPDPKPLVTHLYTADPSAHVFNNKIYIYPSHDRETDIAFNDNGDQYDMTDYHVFSMDAIDGPVTDSGVVLSAADVPWVSKQMWAPDAATKNGKYYLFFPARDHEGIFRIGVAVSDSPMGPFAPEKSYIPGSYSIDPAVFVDTDDSAYLYFGGIWGGQLQCWERADGSASASADPQMNGLVFNKSKSGPQEPSGAGVPALCPRVGQLSDDMLTFVSPPRELQILAPETGEPLAADDHERRFFEAAWMHKYKGKYYFSYSTGDSHYLVYATGDSPWGPFTYQGRILEPVLGWTTHHSIVEFQGKWYLFYHDCELSKGVDHLRSVKVREIVYDEEDKIHLA
notes: full-length, 348 residues, no native signal peptide; alpha-factor secretion signal, C-terminal His6 tag kept; Pichia pastoris X-33 (pPICZalphaA)
- Km [3]: 4.05 mM
